Tests used:
AKT1 = AKT1 (Homo sapiens (Human), UniProt P31749); experiment: Inactive Akt Alpha Screen Assay; conditions: non *labeled: Akt Alpha Screen assay; read-out: AKT1 biochemical assay, IC50
How it was run: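 AKT1 activated in situ by PDK1, MAPKAPK2, lipid vesicles and ATP, then phosphorylating biotinylated crosstide for 30 min at room temperature. Stopped with 10 mM EDTA; phosphopeptide detected by AlphaScreen using phospho-AKT substrate antibody (1:350), Protein A acceptor and streptavidin donor beads, 90 min dark, ex 640/em 570 nm.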

A2780 = experiment: MTS Assay, cell proliferation analysis (A2780); assay type: cell-based; conditions: Homo sapiens; A2780 cells; 72 hours; 10 Percent FBS
Description: (§1) Cell proliferation analysis. Cell survival was determined by the MTS assay. Briefly, cells were plated in a 96-well plate at 2,000-10,000 cells per well, cultured for 24 hours in complete growth medium, and then treated with representative compounds of the invention or combinations thereof for 72 hours. MTS was added and incubated for 4 hours, followed by assessment of cell viability by using the microplate reader at 570 nm. Data were normalized to untreated controls and analyzed.

AN3-CA = experiment: MTS Assay, cell proliferation analysis (AN3-CA); assay type: cell-based; conditions: Homo sapiens; AN3-CA cells; 72 hours; 10 Percent FBS
Description: as §1

AKT1, sequence (P31749 whole entry): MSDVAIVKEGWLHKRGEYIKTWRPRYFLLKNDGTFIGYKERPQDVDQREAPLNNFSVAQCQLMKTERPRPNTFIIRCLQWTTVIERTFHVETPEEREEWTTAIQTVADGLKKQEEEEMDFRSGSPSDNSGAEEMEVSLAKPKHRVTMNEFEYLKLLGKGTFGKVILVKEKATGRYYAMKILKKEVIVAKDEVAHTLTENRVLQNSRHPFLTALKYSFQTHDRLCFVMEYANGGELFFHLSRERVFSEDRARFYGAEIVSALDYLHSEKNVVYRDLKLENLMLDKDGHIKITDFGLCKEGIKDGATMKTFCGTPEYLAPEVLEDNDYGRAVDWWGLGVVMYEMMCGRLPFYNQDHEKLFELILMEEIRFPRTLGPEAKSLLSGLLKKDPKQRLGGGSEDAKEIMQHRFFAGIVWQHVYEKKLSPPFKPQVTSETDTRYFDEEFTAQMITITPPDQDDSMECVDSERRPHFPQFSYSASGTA

SMILES | IC50 (AKT1) [µM] | IC50 (A2780) [µM] | IC50 (AN3-CA) [µM]
O=C(NCCc1cccs1)NC1CCN(Cc2ccc(-c3nnc4n3-c3cccnc3Nc3ccccc3-4)cc2)CC1 [Example 182, 1-(1-(4-(9H-benzo[f]pyrido[2,3-b][1,2,4]triazolo[4,3-d][1,4]diazepin-3-yl)benzyl)piperidin-4-yl)-3-(2-(thiophen-2-yl)ethyl)urea] | 0.75 | 10 | 28
c1ccc(-n2cc(COCc3ccc(-c4nnc5n4-c4cccnc4Nc4ccccc4-5)cc3)nn2)cc1 [Example 186, 3-(4-(((1-phenyl-1H-1,2,3-triazol-4-yl)methoxy)methyl)phenyl)-9H-benzo[f]pyrido[2,3-b][1,2,4]triazolo[4,3-d][1,4]diazepine] | 0.49 | 3 | 4
Cc1ccc(S(=O)(=O)NC2(c3ccc(-c4nnc5n4-c4cccnc4Nc4ccccc4-5)cc3)CCC2)cc1 [Example 198, N-(1-(4-(9H-benzo[f]pyrido[2,3-b][1,2,4]triazolo[4,3-d][1,4]diazepin-3-yl)phenyl)cyclobutyl)-4-methylbenzenesulfonamide] | 0.34 | 12 | 17
c1ccc2c(c1)Nc1ncccc1-n1c(-c3ccc(CN4CCC(c5c[nH]c6ccccc56)CC4)cc3)nnc1-2 [Example 187, 3-(4-((4-(1H-indol-3-yl)piperidin-1-yl)methyl)phenyl)-9H-benzo[f]pyrido[2,3-b][1,2,4]triazolo[4,3-d][1,4]diazepine] | 0.5 | 6 | 8
O=C(NCc1ccc(-c2nnc3n2-c2cccnc2Nc2ccccc2-3)cc1)Nc1ccccc1F [Example 121, 1-(4-(9H-benzo[f]pyrido[2,3-b][1,2,4]triazolo[4,3-d][1,4]diazepin-3-yl)benzyl)-3-(2-fluorophenyl)urea] | 0.31 | 16 | 27
Cc1ccc(NC(=O)NC2CCN(Cc3ccc(-c4nnc5n4-c4cccnc4Nc4ccccc4-5)cc3)CC2)cc1 [Example 168, 1-(1-(4-(9H-benzo[f]pyrido[2,3-b][1,2,4]triazolo[4,3-d][1,4]diazepin-3-yl)benzyl)piperidin-4-yl)-3-(p-tolyl)urea] | 0.44 | 15 | 22
O=S(=O)(NC1CCN(Cc2ccc(-c3nnc4n3-c3cccnc3Nc3ccccc3-4)cc2)CC1)c1ccc2c(c1)OCCO2 [Example 156, N-(1-(4-(9H-benzo[f]pyrido[2,3-b][1,2,4]triazolo[4,3-d][1,4]diazepin-3-yl)benzyl)piperidin-4-yl)-2,3-dihydrobenzo[b][1,4]dioxine-6-sulfonamide] | 2 | 15 | 20
Clc1ccc2nc(CCNCc3ccc(-c4nnc5n4-c4cccnc4Nc4ccccc4-5)cc3)[nH]c2c1 [Example 203, N-(4-(9H-benzo[f]pyrido[2,3-b][1,2,4]triazolo[4,3-d][1,4]diazepin-3-yl)benzyl)-2-(6-chloro-1H-benzo[d]imidazol-2-yl)ethanamine] | 0.15 | 10 | 13
O=C(Nc1cccc(C(F)(F)F)c1)NC1CCN(Cc2ccc(-c3nnc4n3-c3cccnc3Nc3ccccc3-4)cc2)CC1 [Example 174, 1-(1-(4-(9H-benzo[f]pyrido[2,3-b][1,2,4]triazolo[4,3-d][1,4]diazepin-3-yl)benzyl)piperidin-4-yl)-3-(3-(trifluoromethyl)phenyl)urea] | 0.63 | 8 | 13
Fc1ccc2c(CCNCc3ccc(-c4nnc5n4-c4cccnc4Nc4ccccc4-5)cc3)c[nH]c2c1 [Example 202, N-(4-(9H-benzo[f]pyrido[2,3-b][1,2,4]triazolo[4,3-d][1,4]diazepin-3-yl)benzyl)-2-(6-fluoro-1H-indol-3-yl)ethanamine] | 0.21 | 4 | 15
O=C(c1ccccc1)N1CCN(Cc2ccc(-c3nnc4n3-c3cccnc3Nc3ccccc3-4)cc2)CC1 [Example 144, (4-(4-(9H-benzo[f]pyrido[2,3-b][1,2,4]triazolo[4,3-d][1,4]diazepin-3-yl)benzyl)piperazin-1-yl)(phenyl)methanone] | 1.9 | – | –
O=C(Nc1ccc2c(c1)CCO2)NC1CCN(Cc2ccc(-c3nnc4n3-c3cccnc3Nc3ccccc3-4)cc2)CC1 [Example 175, 1-(1-(4-(9H-benzo[f]pyrido[2,3-b][1,2,4]triazolo[4,3-d][1,4]diazepin-3-yl)benzyl)piperidin-4-yl)-3-(2,3-dihydrobenzofuran-5-yl)urea] | 0.53 | – | –
Fc1ccccc1N1CCN(Cc2ccc(-c3nnc4n3-c3cccnc3Nc3ccccc3-4)cc2)CC1 [Example 67, 3-(4-((4-(2-fluorophenyl)piperazin-1-yl)methyl)phenyl)-9H-benzo[f]pyrido[2,3-b][1,2,4]triazolo[4,3-d][1,4]diazepine] | 2.8 | – | –
O=S(=O)(NC1(c2ccc(-c3nnc4n3-c3cccnc3Nc3ccccc3-4)cc2)CCC1)c1ccccc1 [Example 195, N-(1-(4-(9H-benzo[f]pyrido[2,3-b][1,2,4]triazolo[4,3-d][1,4]diazepin-3-yl)phenyl)cyclobutyl)benzenesulfonamide] | 0.28 | 11 | 16
CCCC(=O)Nc1ccc(-c2nnc3n2-c2cccnc2Nc2ccccc2-3)cc1 [Example 32, N-(4-(9H-benzo[f]pyrido[2,3-b][1,2,4]triazolo[4,3-d][1,4]diazepin-3-yl)phenyl)butyramide] | 0.73 | – | –
COc1ccc(C)cc1NC(=O)NC1CCN(Cc2ccc(-c3nnc4n3-c3cccnc3Nc3ccccc3-4)cc2)CC1 [Example 166, 1-(1-(4-(9H-benzo[f]pyrido[2,3-b][1,2,4]triazolo[4,3-d][1,4]diazepin-3-yl)benzyl)piperidin-4-yl)-3-(2-methoxy-5-methylphenyl)urea] | 0.72 | – | –
O=C(NCc1ccccc1Cl)NC1CCN(Cc2ccc(-c3nnc4n3-c3cccnc3Nc3ccccc3-4)cc2)CC1 [Example 173, 1-(1-(4-(9H-benzo[f]pyrido[2,3-b][1,2,4]triazolo[4,3-d][1,4]diazepin-3-yl)benzyl)piperidin-4-yl)-3-(2-chlorobenzyl)urea] | 0.91 | – | –
NCc1ccc(-c2nnc3n2-c2cccnc2Nc2ccc(Br)cc2-3)cc1 [Example 227, (4-(12-bromo-9H-benzo[f]pyrido[2,3-b][1,2,4]triazolo[4,3-d][1,4]diazepin-3-yl)phenyl)methanamine] | 6.1 | – | –

Continued by falling IC50 (AKT1), values first:

IC50 (AKT1) [µM] | IC50 (A2780) [µM] | SMILES | IC50 (AN3-CA) [µM]
0.15 | 21 | O=S(=O)(NCc1ccc(-c2nnc3n2-c2cccnc2Nc2ccccc2-3)cc1)c1cccc(Cl)c1 [Example 116, N-(4-(9H-benzo[f]pyrido[2,3-b][1,2,4]triazolo[4,3-d][1,4]diazepin-3-yl)benzyl)-3-chlorobenzenesulfonamide] | 23
0.14 | 16 | COc1cccc(S(=O)(=O)NCc2ccc(-c3nnc4n3-c3cccnc3Nc3ccccc3-4)cc2)c1 [Example 114, N-(4-(9H-benzo[f]pyrido[2,3-b][1,2,4]triazolo[4,3-d][1,4]diazepin-3-yl)benzyl)-3-methoxybenzenesulfonamide] | 25
0.13 | 27 | COc1cccc(NC(=O)NCc2ccc(-c3nnc4n3-c3cccnc3Nc3ccccc3-4)cc2)c1 [Example 123, 1-(4-(9H-benzo[f]pyrido[2,3-b][1,2,4]triazolo[4,3-d][1,4]diazepin-3-yl)benzyl)-3-(3-methoxyphenyl)urea] | 48
0.12 | 19 | O=S(=O)(NCc1ccc(-c2nnc3n2-c2cccnc2Nc2ccccc2-3)cc1)c1ccc(F)cc1 [Example 117, N-(4-(9H-benzo[f]pyrido[2,3-b][1,2,4]triazolo[4,3-d][1,4]diazepin-3-yl)benzyl)-4-fluorobenzenesulfonamide] | 37
0.12 | 6 | O=C(NCCc1ccc(-c2nnc3n2-c2cccnc2Nc2ccccc2-3)cc1)Nc1ccccc1 [Example 110, 1-(4-(9H-benzo[f]pyrido[2,3-b][1,2,4]triazolo[4,3-d][1,4]diazepin-3-yl)phenethyl)-3-phenylurea] | 8
0.11 | 16 | Cc1cccc(S(=O)(=O)NCc2ccc(-c3nnc4n3-c3cccnc3Nc3ccccc3-4)cc2)c1 [Example 115, N-(4-(9H-benzo[f]pyrido[2,3-b][1,2,4]triazolo[4,3-d][1,4]diazepin-3-yl)benzyl)-3-methylbenzenesulfonamide] | 28
0.11 | 14 | Cc1ccc(S(=O)(=O)NCc2ccc(-c3nnc4n3-c3cccnc3Nc3ccccc3-4)cc2)cc1 [Example 118, N-(4-(9H-benzo[f]pyrido[2,3-b][1,2,4]triazolo[4,3-d][1,4]diazepin-3-yl)benzyl)-4-methylbenzenesulfonamide] | 28
0.073 | 12 | O=C(NC1(c2ccc(-c3nnc4n3-c3cccnc3Nc3ccccc3-4)cc2)CCC1)c1ccccc1 [Example 193, N-(1-(4-(9H-benzo[f]pyrido[2,3-b][1,2,4]triazolo[4,3-d][1,4]diazepin-3-yl)phenyl)cyclobutyl)benzamide] | 22
0.07 | 32 | O=C(Nc1ccc(-c2nnc3n2-c2cccnc2Nc2ccccc2-3)cc1)c1ccccc1 [Example 59, N-(4-(9H-benzo[f]pyrido[2,3-b][1,2,4]triazolo[4,3-d][1,4]diazepin-3-yl)phenyl)benzamide] | 28

Reference: patent US8541407B2 (ArQule, Inc., priority 2010, dated 2013)
